Values after ≈ are worked out from the molar mass of the structure shown. Non-standard residues stand in square brackets, D forms with d. Residues, ends and D or L forms follow the SMILES beside them. Ac6c = NC1(C(=O)O)CCCCC1
What was measured:
[1] = tested on: Enterococcus faecium; assay: Potency index, ratio of Ac-GF-Tic-Oic-GK-Tic-Oic-GF-Tic-Oic-GK-Tic-KKKK-CONH2 MIC to compound MIC for Enterococcus faecium; assay type: functional
[2] = tested on: Klebsiella aerogenes; assay: Antibacterial activity against carbapenem-resistant Enterobacter aerogenes NCDC819-56 ATCC 13048 by two fold serial dilution method; assay type: functional
[3] = tested on: Acinetobacter baumannii; assay: Antibacterial activity against Acinetobacter baumannii B5W71 ATCC 15149 by two fold serial dilution method; assay type: functional
[4] = Antibacterial activity against Salmonella enterica LT2 Typhimurium ATCC 15277 by two fold serial dilution method; assay type: functional
[5] = tested on: Pseudomonas aeruginosa; assay: Antibacterial activity against Pseudomonas aeruginosa Boston 41501 ATCC 27853 by two fold serial dilution method; assay type: functional
[6] = Antibacterial activity against carbapenem-resistant Klebsiella pneumoniae K6 ATCC 700603 by two fold serial dilution method; assay type: functional, Klebsiella pneumoniae 700603
[7] = tested on: Enterococcus faecalis; assay: Antibacterial activity against Enterococcus faecalis Portland ATCC 29212 by two fold serial dilution method; assay type: functional; conditions: ATCC 29212 Portland
[8] = tested on: Staphylococcus aureus; assay: Antibacterial activity against methicillin-resistant Staphylococcus aureus USA 300 NRS 384 by two fold serial dilution method; assay type: functional
[9] = Antibacterial activity against Clostridium difficile VIP 10463 ATCC 43255 by two fold serial dilution method; assay type: functional, Clostridium difficile ATCC 43255; conditions: Clostridioides difficile
[10] = tested on: Staphylococcus aureus; assay: Antibacterial activity against Staphylococcus aureus Seattle 1945 ATCC 25923 by two fold serial dilution method; assay type: functional
[11] = tested on: Streptococcus pneumoniae; assay: Antibacterial activity against Streptococcus pneumoniae 262 ATCC 49619 by two fold serial dilution method; assay type: functional
[12] = tested on: Neisseria gonorrhoeae; assay: Antibacterial activity against Neisseria gonorrhoeae F-18 ATCC 49226 by two fold serial dilution method; assay type: functional
[13] = Antibacterial activity against Bacillus anthracis Ames NR-3838 by two fold serial dilution method; assay type: functional, Bacillus anthracis str. Ames
[14] = Antibacterial activity against Francisella tularensis SCHU S4 NR-643 by two fold serial dilution method; assay type: functional
[15] = Antibacterial activity against Yersinia pestis CO92 NR641 by two fold serial dilution method; assay type: functional
[16] = tested on: Burkholderia pseudomallei; assay: Antibacterial activity against Burkholderia pseudomallei AHS 1 NCTC 8016 by two fold serial dilution method; assay type: functional
[17] = tested on: Mycobacterium tuberculosis; assay: Antibacterial activity against Mycobacterium tuberculosis H37Ra ATCC 2517 by two fold serial dilution method; assay type: functional
[18] = tested on: CFPAC-1; assay: Antiproliferative activity against human CFPAC-1 cells after 72 hrs by Celltiter-Glo luminescent cell viability assay; assay type: functional, cell-based; conditions: CFPAC-1, 72 h
[19] = tested on: MCF7; assay: Antiproliferative activity against human MCF7 cells after 72 hrs by Celltiter-Glo luminescent cell viability assay; assay type: functional, cell-based; conditions: MCF7, 72 h
[20] = Antiproliferative activity against human IGROV1 cells after 72 hrs by Celltiter-Glo luminescent cell viability assay; assay type: functional, cell-based; conditions: IGROV-1, 72 h
[21] = Antiproliferative activity against human COLO205 cells after 72 hrs by Celltiter-Glo luminescent cell viability assay; assay type: functional, cell-based; conditions: COLO 205, 72 h
[22] = Antiproliferative activity against human DLD1 cells after 72 hrs by Celltiter-Glo luminescent cell viability assay; assay type: functional, cell-based; conditions: DLD-1, 72 h
[23] = Antiproliferative activity against human UACC62 cells after 72 hrs by Celltiter-Glo luminescent cell viability assay; assay type: functional, cell-based; conditions: UACC-62, 72 h
[24] = Antiproliferative activity against human MIAPaCa2 cells after 72 hrs by Celltiter-Glo luminescent cell viability assay; assay type: functional, cell-based; conditions: MIA PaCa-2, 72 h
[25] = tested on: A498; assay: Antiproliferative activity against human A498 cells after 72 hrs by Celltiter-Glo luminescent cell viability assay; assay type: functional, cell-based; conditions: A498, 72 h
[26] = Antiproliferative activity against human PC3 cells after 72 hrs by Celltiter-Glo luminescent cell viability assay; assay type: functional, cell-based; conditions: PC-3, 72 h
[27] = tested on: A549; assay: Antiproliferative activity against human A549 cells after 72 hrs by Celltiter-Glo luminescent cell viability assay; assay type: functional, cell-based; conditions: A549, 72 h
[28] = tested on: NCI-H69; assay: Antiproliferative activity against human NCI-H69 cells after 72 hrs by Celltiter-Glo luminescent cell viability assay; assay type: functional, cell-based; conditions: NCI-H69, 72 h
[29] = tested on: RL; assay: Antiproliferative activity against human RL cells after 72 hrs by Celltiter-Glo luminescent cell viability assay; assay type: functional, cell-based
[30] = tested on: Klebsiella aerogenes; assay: Potency index, ratio of Ac-GF-Tic-Oic-GK-Tic-Oic-GF-Tic-Oic-GK-Tic-KKKK-CONH2 MIC to compound MIC for carbapenem-resistant Enterobacter aerogenes NCDC819-56 ATCC 13048; assay type: functional; conditions: pooled result: one value given for 3 cell lines, strains, targets or settings
[31] = tested on: Acinetobacter baumannii; assay: Potency index, ratio of Ac-GF-Tic-Oic-GK-Tic-Oic-GF-Tic-Oic-GK-Tic-KKKK-CONH2 MIC to compound MIC for Acinetobacter baumannii B5W71 ATCC 15149; assay type: functional
[32] = tested on: Pseudomonas aeruginosa; assay: Potency index, ratio of Ac-GF-Tic-Oic-GK-Tic-Oic-GF-Tic-Oic-GK-Tic-KKKK-CONH2 MIC to compound MIC for Pseudomonas aeruginosa Boston 41501 ATCC 27853; assay type: functional

Compound | MIC [2] [µM] | MIC [3] [µM] | MIC [4] [µM] | MIC [5] [µM] | MIC [6] [µM] | MIC [7] [µM] | MIC [8] [µM] | MIC [9] [µM] | MIC [10] [µM] | MIC [11] [µM] | MIC [12] [µM] | MIC [13] [µM] | MIC [14] [µM] | MIC [15] [µM] | MIC [16] [µM] | MIC [17] [µM] | IC50 [18] [µM] | IC50 [19] [µM] | IC50 [20] [µM] | IC50 [21] [µM] | other results
CC(=O)NCC(=O)N[C@H](Cc1ccccc1)C(=O)NC1(C(=O)NCC(=O)N2C(C(=O)N[C@@H](CCCCN)C(=O)NC3(C(=O)NCC(=O)N4C(C(=O)N[C@@H](Cc5ccccc5)C(=O)NC5(C(=O)NCC(=O)N6C(C(=O)NCC(=O)N[C@@H](CCCCN)C(=O)N7C(C(=O)N[C@H](CCCCN)C(=O)N[C@H](CCCCN)C(=O)N[C@H](CCCCN)C(=O)N[C@H](CCCCN)C(N)=O)CC8CCCCC87)CC7CCCCC76)CCCCC5)CC5CCCCC54)CCCCC3)CC3CCCCC32)CCCCC1 (stereo in doubt) | > 42 | 20.9 (≈ 50 µg/mL) | 41.9 (≈ 100 µg/mL) | 20.9 (≈ 50 µg/mL) | > 42 | > 42 | > 42 | 2.62 (≈ 6.26 µg/mL) | > 42 | > 42 | 20.9 (≈ 50 µg/mL) | 20.9 (≈ 50 µg/mL) | 20.9 (≈ 50 µg/mL) | > 42 | > 42 | 20.9 (≈ 50 µg/mL) | > 7.5 | > 7.5 | > 7.5 | > 7.5 | Ratio [1]: 4.2; IC50 [22]: > 7.5 µM; IC50 [23]: > 7.5 µM; IC50 [24]: > 7.5 µM; IC50 [25]: > 7.5 µM; IC50 [26]: > 7.5 µM; IC50 [27]: > 7.5 µM; IC50 [28]: > 7.5 µM; IC50 [29]: 6.7 µM; Ratio [30]: 1.05; Ratio [31]: 8.372; Ratio [32]: 0.5232
CC(=O)N[C@@H](CCCCN)C(=O)N[C@@H](CCCCN)C(=O)N[C@@H](CCCCN)C(=O)N[C@@H](CCCCN)C(=O)NCC(=O)N[C@@H](Cc1ccccc1)C(=O)NC1(C(=O)NCC(=O)NC2(C(=O)N[C@@H](CCCCN)C(=O)NC3(C(=O)NCC(=O)NC4(C(=O)N[C@@H](Cc5ccccc5)C(=O)NC5(C(=O)NCC(=O)NC6(C(=O)NCC(=O)N[C@@H](CCCCN)C(=O)NC7(C(N)=O)CCCCC7)CCCCC6)CCCCC5)CCCCC4)CCCCC3)CCCCC2)CCCCC1 (Ac-KKKKGF[Ac6c]G[Ac6c]K[Ac6c]G[Ac6c]F[Ac6c]G[Ac6c]GK[Ac6c]-NH2) | 43.8 (≈ 99.9 µg/mL) | 2.73 (≈ 6.24 µg/mL) | 5.47 (≈ 12.5 µg/mL) | 1.37 (≈ 3.13 µg/mL) | 43.8 (≈ 99.9 µg/mL) | 21.9 (≈ 49.9 µg/mL) | 43.8 (≈ 99.9 µg/mL) | 1.37 (≈ 3.13 µg/mL) | 10.9 (≈ 25 µg/mL) | 21.9 (≈ 49.9 µg/mL) | 2.73 (≈ 6.24 µg/mL) | 1.37 (≈ 3.13 µg/mL) | 21.9 (≈ 49.9 µg/mL) | > 44 | > 44 | 21.9 (≈ 49.9 µg/mL) | > 7.5 | 7.3 | > 7.5 | 6.7 | IC50 [22]: > 7.5 µM; IC50 [23]: 6.4 µM; IC50 [24]: > 7.5 µM; IC50 [25]: 4.2 µM; IC50 [26]: > 7.5 µM; IC50 [27]: 7.2 µM; IC50 [28]: 2.2 µM; IC50 [29]: 3.7 µM
